Source: patent US9207219B1, “Fully automated analytical method for determination of chloroethers in water and urine sample” (priority 2014, dated 2015)
≈ marks a conversion by molar mass, not a printed value.

What was measured:
[1] = Concentration of CEs in human urine determined by fully automated FA-SPME/GC-MS; conditions: urine of a volunteer working at water desalination facility; urine diluted 1:1 with ultrapure water before extraction
Method: Analyses were performed using a gas chromatograph (Agilent technologies, 7890A GC) coupled with a quadrupole mass selective spectrometer (Agilent technologies, 5975C) equipped with an inert ion source and provided with a split-splitless injection port. An A HP-5 GC fused silica capillary column (Agilent 19091J-413; 30 m×320 μm ID×0.25 μm thickness) was selected to separate the analytes. CTC CombiPAL autosampler (GC sampler 80, Zwingen, Switzerland) was used for the full automated FA-SPME. Ultra high purity helium (99.999%, Abdulah Hashim, Al-Khobar, Saudi Arabia) was used as the carrier gas at a flow rate of 1.3 mL min^−1. The samples were injected in the splitless mode. The temperature program used for the analyses was as follows: the initial temperature was 40° C. held 1 min which was then increased to 118° C. at 10° C. min^−1 and held for 3 min, then to 190 C at 15° C. min^−1 and held for 4 min. The total run time was 18.6 min. The injection port, ion source and interface temperatures were 280° C., 230° C., and 250° C., respectively. For qualitative determinations, the MSD was operated in full-scan mode from m/z 50 to 550 and selective ion monitoring mode was used for the quantification of the analytes. […]
The applicability of the proposed FA-SPME technique for real water and urine sample matrices were evaluated. […]

[2] = cited from earlier work
[3] = cited from earlier work; remark: listed apart in the source

Compound | concentration in real sample, Human urine [1] [ng/mL] | Solubility at 20-25° C. [2] [µg/mL] | Vapor pressure at 20-25° C. [2] [mmHg] | Henry's law constant at 20° C. [2] | Diffusion coefficient in air [2] [cm^2 s^−1] | Diffusion coefficient in water [2] [cm^2 s^−1] | minimum half-life in water [3] [years]
ClCCOCCCl [BCEE, Bis(2-chloroethyl)ether] | 30.8 | 10200 (≈ 71.3 mM) | 1.34 | 0.00089 | 0.069 | 7.53E−06 | –
ClCCOCOCCCl [BCEM, Bis(2-chloroethoxy)methane] | 11.5 | 1353.4 (≈ 7.82 mM) | 0.179 | 0.001 | 0.058 | 7.11E−06 | ≥ 2
